51 compounds from patent US8541455B2, “Derivatives of 2-pyridin-2-yl-pyrazol-3(2H)-one, preparation and therapeutic use thereof as HIF activators” (Sanofi, priority 2008, dated 2013) can be followed below.

Counter-ions that a name gives are not always drawn.

For `CN(C)CC(C)(C)NS(=O)(=O)c1ccc(-n2[nH]cc(Cc3ccccc3)c2=O)nc1` (as salt: HCl) [Compound 152], the melting point – broadly, the temperature of the solid-liquid transition – was 230 °C.
To `COC(=O)CC(c1cccnc1)c1c[nH]n(-c2ccc(S(=O)(=O)NC(C)(C)C)cn2)c1=O` (stereo not drawn) (as salt: HCl) [Compound 154, methyl 3-(2-[5-(tert-butylsulfamoyl)pyridin-2-yl]-3-oxo-2,3-dihydro-1H-pyrazol-4-yl)-3-(pyridin-3-yl)propanoate] belongs 146 °C; to `COC(=O)c1ccc(-n2[nH]c(C)c(Cc3ccccc3Cl)c2=O)nc1` (as salt: HCl) [Compound 170], 258 °C.
Compound `Cc1[nH]n(-c2ccccn2)c(=O)c1Cc1ccncc1` (as salt: HCl) [Compound 176] returned a melting point of 208 °C.
With `Cc1[nH]n(-c2ccccn2)c(=O)c1Cc1cccc(N(C)C)c1` (as salt: HCl) [Compound 190] the figure was 132 °C; with `CC(C)(C)OC(=O)c1ccc(-n2[nH]cc(Cc3cccnc3)c2=O)nc1` (as salt: HCl) [Compound 202], 160 °C; with `CCN(c1ccccc1)S(=O)(=O)c1ccc(-n2[nH]c(C)c(Cc3cccnc3)c2=O)nc1` (as salt: hydrochloride) [Compound 43], 128 °C.
To `CCN(c1ccccc1)S(=O)(=O)c1ccc(-n2[nH]c(C)c(Cc3cccc(OCCN(C)C)c3)c2=O)nc1` (as salt: hydrochloride) [Compound 56, 6-(4-{3-[2-(dimethylamino)ethoxy]benzyl}-3-methyl-5-oxo-2,5-dihydro-1H-pyrazol-1-yl)-N-ethyl-N-phenylpyridine-3-sulfonamide hydrochloride] belongs 124 °C; to `Cc1[nH]n(-c2ccc(S(=O)(=O)N(C(C)C)C(C)C)cn2)c(=O)c1Cc1ccc(Cl)cc1Cl` [Compound 15], 226 °C; to `CCN(c1ccccc1)S(=O)(=O)c1ccc(-n2[nH]c(C)c(Cc3ccc(OCCN(C)C)cc3)c2=O)nc1` [Compound 49], 178 °C.
With `CCN(c1ccccc1)S(=O)(=O)c1ccc(-n2[nH]c(C)c(Cc3ccc(N(C)C)cc3)c2=O)nc1` [Compound 50] the figure was 182 °C.
Take `CCN(c1ccccc1)S(=O)(=O)c1ccc(-n2[nH]c(C)c(Cc3cccc(OC)c3)c2=O)nc1` [Compound 55]: the melting point stood at 146 °C.
`CCN(c1ccccc1)S(=O)(=O)c1ccc(-n2[nH]c(C)c(Cc3ccccc3OC)c2=O)nc1` [Compound 57] showed a melting point of 108 °C.
For `CCN(c1ccccc1)S(=O)(=O)c1ccc(-n2[nH]c(C)c(Cc3ccc(OCCOC)cc3)c2=O)nc1` [Compound 61], the melting point was 176 °C.
Turning to `Cc1[nH]n(-c2ccc(S(=O)(=O)N(C)C)cn2)c(=O)c1Cc1cccnc1` [Compound 66, N,N-dimethyl-6-[3-methyl-5-oxo-4-(pyridin-3-ylmethyl)-2,5-dihydro-1H-pyrazol-1-yl]pyridine-3-sulfonamide], the melting point was determined as 212 °C.
`CCN(c1ccccc1)S(=O)(=O)c1ccc(-n2[nH]c(C)c(Cc3cccc(OC)n3)c2=O)nc1` [Compound 78]: the melting point worked out at 174 °C.
With `CCN(c1ccccc1)S(=O)(=O)c1ccc(-n2[nH]c(C)c(Cc3cncc(OC)c3)c2=O)nc1` [Compound 86] the figure was 138 °C; with `CCN(c1ccccc1)S(=O)(=O)c1ccc(-n2[nH]c(C)c(Cc3cncc(C#N)c3)c2=O)nc1` [Compound 97, 6-{4-[(5-cyanopyridin-3-yl)methyl]-3-methyl-5-oxo-2,5-dihydro-1H-pyrazol-1-yl}-N-ethyl-N-phenylpyridine-3-sulfonamide], 164 °C.
For the compound `CC(C)(C)NS(=O)(=O)c1ccc(-n2[nH]cc(Cc3cccnc3)c2=O)nc1` [Compound 98A, N-tert-butyl-6-[5-oxo-4-(pyridin-3-ylmethyl)-2,5-dihydro-1H-pyrazol-1-yl]pyridine-3-sulfonamide], the melting point was found to be 220 °C.
With `CN(C(C)(C)C)S(=O)(=O)c1ccc(-n2[nH]cc(Cc3ccccc3)c2=O)nc1` [Compound 100], the melting point is 186 °C.
Consider `COc1cncc(Cc2c(C)[nH]n(-c3ccc(S(=O)(=O)N(C)C(C)(C)C)cn3)c2=O)c1` [Compound 102], for which the melting point was 84 °C.
To `CCN(c1ccccc1)S(=O)(=O)c1ccc(-n2[nH]c(C)c(Cc3ccc(C#N)nc3)c2=O)nc1` [Compound 103] belongs 120 °C; to `CCN(c1ccccc1)S(=O)(=O)c1ccc(-n2[nH]cc(CC(=O)N(C)C)c2=O)nc1` [Compound 105], 168 °C.
Take `CCOC(=O)Cc1[nH]n(-c2ccc(S(=O)(=O)N(CC)c3ccccc3)cn2)c(=O)c1Cc1ccccc1` [Compound 106, ethyl (4-benzyl-1-{5-[ethyl(phenyl)sulfamoyl]pyridin-2-yl}-5-oxo-2,5-dihydro-1H-pyrazol-3-yl)acetate]: the melting point is 156 °C.
Turning to `CCN(c1ccccc1)S(=O)(=O)c1ccc(-n2[nH]c(CC(=O)N(C)C)c(Cc3ccccc3)c2=O)nc1` [Compound 109], the melting point was 163 °C.
With `CCN(c1ccccc1)S(=O)(=O)c1ccc(-n2[nH]cc(CCC(=O)O)c2=O)nc1` [Compound 110] the figure was 214 °C; with `CCN(c1ccccc1)S(=O)(=O)c1ccc(-n2[nH]c(C)c(Cc3cccc(C(=O)OC)c3)c2=O)nc1` [Compound 111], 172 °C.
To `CCN(c1ccccc1)S(=O)(=O)c1ccc(-n2[nH]cc(CCC(=O)OC)c2=O)nc1` [Compound 112] belongs 128 °C; to `COC(=O)C(c1ccccc1)c1c[nH]n(-c2ccc(S(=O)(=O)NC(C)(C)C)cn2)c1=O` (stereo not drawn) [Compound 113, methyl {2-[5-(tert-butylsulfamoyl)pyridin-2-yl]-3-oxo-2,3-dihydro-1H-pyrazol-4-yl}(phenyl)acetate], 66 °C; to `COC(=O)CC(c1ccccc1)c1c[nH]n(-c2ccc(S(=O)(=O)N(C)C3CCCC3)cn2)c1=O` (stereo not drawn) [Compound 114], 80 °C.
As for `CCN(c1ccccc1)S(=O)(=O)c1ccc(-n2[nH]c(C)c(Cc3ccccc3C(=O)OC)c2=O)nc1` [Compound 116], the melting point worked out at 146 °C.
As to `CCN(c1ccccc1)S(=O)(=O)c1ccc(-n2[nH]cc(CC3CCCC3)c2=O)nc1` [Compound 134], the melting point worked out at 170 °C.
`CN([C@@H]1CC[C@H](CO)C1)S(=O)(=O)c1ccc(-n2[nH]cc(Cc3ccccc3)c2=O)nc1` [Compound 138, 6-(4-benzyl-5-oxo-2,5-dihydro-1H-pyrazol-1-yl)-N-[(1R,3S)-3-(hydroxymethyl)cyclopentyl]-N-methylpyridine-3-sulfonamide] came in with a melting point of 108 °C.
With `O=c1c(Cc2ccccc2)c[nH]n1-c1ccc(S(=O)(=O)N(C[C@@H](O)CO)C2CCCC2)cn1` [Compound 142, 6-(4-benzyl-5-oxo-2,5-dihydro-1H-pyrazol-1-yl)-N-cyclopentyl-N-[(2R)-2,3-dihydroxypropyl]pyridine-3-sulfonamide], the melting point worked out at 184 °C.
In turn, `O=c1c(Cc2ccccc2)c[nH]n1-c1ccc(S(=O)(=O)N(CC(O)CO)c2ccccc2)cn1` (stereo not drawn) [Compound 143, 6-(4-benzyl-5-oxo-2,5-dihydro-1H-pyrazol-1-yl)-N-(2,3-dihydroxypropyl)-N-phenylpyridine-3-sulfonamide] returned a melting point of 174 °C.
To `CCC(C)(C)N(C)S(=O)(=O)c1ccc(-n2[nH]cc(Cc3cccnc3)c2=O)nc1` [Compound 145] belongs 162 °C.
`CN(C1CCCC1)S(=O)(=O)c1ccc(-n2[nH]cc(C(CC(=O)NCC(F)(F)F)c3ccccc3)c2=O)nc1` (stereo not drawn) [Compound 146, 3-(2-{5-[cyclopentyl(methyl)sulfamoyl]pyridin-2-yl}-3-oxo-2,3-dihydro-1H-pyrazol-4-yl)-3-phenyl-N-(2,2,2-trifluoroethyl)propanamide]: the melting point stood at 80 °C.
Regarding `O=c1c(Cc2ccccc2)c[nH]n1-c1ccc(S(=O)(=O)N(CC(CO)CO)C2CCCC2)cn1` [Compound 147, 6-(4-benzyl-5-oxo-2,5-dihydro-1H-pyrazol-1-yl)-N-cyclopentyl-N-[3-hydroxy-2-(hydroxymethyl)propyl]pyridine-3-sulfonamide], the melting point is above 260 °C.
With `O=c1c(Cc2ccccc2)c[nH]n1-c1ccc(S(=O)(=O)N(C[C@H](O)CO)C2CCCC2)cn1` [Compound 148, 6-(4-benzyl-5-oxo-2,5-dihydro-1H-pyrazol-1-yl)-N-cyclopentyl-N-[(2S)-2,3-dihydroxypropyl]pyridine-3-sulfonamide], the melting point turned out to be 184 °C.
`O=c1c(Cc2ccccc2)c[nH]n1-c1ccc(S(=O)(=O)N[C@H]2CCC[C@@H]2O)cn1` [Compound 149]: the melting point was 176 °C.
On to `CC(C)(C)NS(=O)(=O)c1ccc(-n2[nH]cc(Cc3ccncc3)c2=O)nc1` [Compound 150], for which the melting point is 226 °C.
The compound `CN(c1ccccc1)S(=O)(=O)c1ccc(-n2[nH]cc(Cc3ccccc3)c2=O)nc1` [Compound 153] yielded a melting point of 198 °C.
Compound `CCOC(=O)CC(c1ccccc1)c1c[nH]n(-c2ccc(S(=O)(=O)NC(C)(C)C)cn2)c1=O` (stereo not drawn) [Compound 155] gave a melting point of 130 °C.
The compound `O=c1c(Cc2ccccc2)c[nH]n1-c1ccc(S(=O)(=O)NCCO)cn1` [Compound 157] came in with a melting point of 180 °C.
The compound `COc1ccc(Cc2c(C)[nH]n(-c3ccc(S(=O)(=O)N(C)C(C)(C)C)cn3)c2=O)nc1` [Compound 160] registered a melting point of 165 °C.
With `Cc1[nH]n(-c2ccccn2)c(=O)c1Cc1ccccc1C#N` [Compound 172] the figure was 157 °C; with `Cc1[nH]n(-c2ccccn2)c(=O)c1Cc1ccc(C#N)cc1` [Compound 173], 154 °C; with `Cc1[nH]n(-c2ccccn2)c(=O)c1Cc1ccncc1` [Compound 175], 162 °C.
To `Cc1[nH]n(-c2ccccn2)c(=O)c1Cc1cccc(C#N)c1` [Compound 177] belongs 90 °C; to `COc1cc(Cc2c(C)[nH]n(-c3ccccn3)c2=O)cc(OC)c1` [Compound 179], 96 °C; to `Cc1[nH]n(-c2ccccn2)c(=O)c1Cc1ccc(S(C)(=O)=O)cc1` [Compound 180], 144 °C.
